± gives the standard deviation of the averaged measurements.
Legend:
Assay in all cases: level (log10 ratio to DMSO vehicle control); higher = higher biomarker level / cell amount than vehicle control
Details in all cases: in DMSO
[1] = compound: O=C(O)C(F)(F)OC(F)(F)C(F)(F)OC(F)(F)C(F)(F)C(F)(F)C(F)(F)F [Perfluoro-3,6-dioxadecanoic acid]
Description: (§1)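 BioMAP Diversity Plus panel of 12 human primary cell co-culture systems (3C, 4H, LPS, SAg, BT, BF4T, BE3C, CASM3C, HDF3CGF, KF3CT, MyoF, Mphg). Compounds were added 1 h before stimulation and left for 24 h (MyoF 48 h; BT 72 h for soluble read-outs or 6 d for IgG). Biomarkers were read by ELISA, cytotoxicity by SRB, PBMC viability and proliferation by Alamar Blue. Each well value was divided by the mean of 8 DMSO control wells on the same plate and log10 transformed; duplicate blinded samples were tested at 4 concentrations.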

[2] = compound: FC(F)(F)C(F)(F)C(F)(F)C(F)(F)C(F)(F)C(F)(F)C(F)(F)CCI [1-Iodo-1H,1H,2H,2H-perfluorononane]
Description: as §1

Perfluorooctanamide = compound: NC(=O)C(F)(F)C(F)(F)C(F)(F)C(F)(F)C(F)(F)C(F)(F)C(F)(F)F [Perfluorooctanamide]
Description: as §1

Azathioprine = compound: Cn1cnc([N+](=O)[O-])c1Sc1ncnc2[nH]cnc12 [Azathioprine]
Description: as §1

[3] = compound: O=S(=O)(O)C(F)(F)C(F)(F)C(F)(F)C(F)(F)C(F)(F)C(F)(F)C(F)(F)C(F)(F)F [Perfluorooctanesulfonic acid]
Description: as §1

[4] = compound: O=C(O)C(F)(F)C(F)(F)C(F)(F)C(F)(F)C(F)(F)C(F)(F)C(F)(F)C(F)(F)Cl [9-Chloro-perfluorononanoic acid]
Description: as §1

1-(Perfluorohexyl)octane = compound: CCCCCCCCC(F)(F)C(F)(F)C(F)(F)C(F)(F)C(F)(F)C(F)(F)F [1-(Perfluorohexyl)octane]
Description: as §1

| Test System | level (log10) ([1]; 6700 nM) | level (log10) ([1]; 20000 nM) | level (log10) ([1]; 60000 nM) | level (log10) ([2]; 6700 nM) | level (log10) ([2]; 20000 nM) | level (log10) (Perfluorooctanamide; 6700 nM) | level (log10) (Perfluorooctanamide; 20000 nM) | level (log10) (Perfluorooctanamide; 60000 nM) | level (log10) (Azathioprine; 1400 nM) | level (log10) (Azathioprine; 4200 nM) | level (log10) (Azathioprine; 13000 nM) | level (log10) (Azathioprine; 38000 nM) | level (log10) ([3]; 6700 nM) | level (log10) ([3]; 20000 nM) | level (log10) ([3]; 60000 nM) | level (log10) ([4]; 6700 nM) | level (log10) ([4]; 20000 nM) | level (log10) (1-(Perfluorohexyl)octane; 6700 nM) | level (log10) (1-(Perfluorohexyl)octane; 20000 nM) |
| --- | --- | --- | --- | --- | --- | --- | --- | --- | --- | --- | --- | --- | --- | --- | --- | --- | --- | --- | --- |
| lMphg:CD40 | 0.002 ± 0.047 | -0.0175 ± 0.035 | -0.102 ± 0.023 | -0.0065 ± 0.00071 | -0.0225 ± 0.028 | -0.0285 ± 0.018 | -0.007 ± 0.014 | 0.045 ± 0.0085 | -0.0125 ± 0.04 | -0.0205 ± 0.013 | -0.025 ± 0.0014 | -0.106 ± 0.03 | -0.027 ± 0.013 | -0.0025 ± 0.005 | 0.02 ± 0.0014 | -0.0165 ± 0.0064 | -0.0155 ± 0.005 | -0.0185 ± 0.011 | -0.023 ± 0.021 |
| lMphg:SRB | -0.0135 ± 0.011 | -0.01 ± 0.0071 | -0.0705 ± 0.013 | -0.002 ± 0.0071 | 0.0065 ± 0.005 | -0.0015 ± 0.016 | -0.0145 ± 0.0021 | -0.0075 ± 0.011 | -0.0055 ± 0.0078 | -0.0055 ± 0.005 | -0.014 ± 0.0085 | -0.0365 ± 0.0021 | -0.002 ± 0.014 | -0.004 ± 0.018 | 0.009 ± 0.02 | 0.0105 ± 0.0092 | 0.013 ± 0.0042 | 0.002 ± 0.0042 | 0 ± 0.0085 |
| HDF3CGF:CD106/VCAM-1 | -0.0845 ± 0.0021 | -0.15 ± 0.0057 | -0.21 ± 0.013 | -0.0925 ± 0.013 | -0.115 ± 0.018 | -0.015 ± 0.0099 | 0.0005 ± 0.005 | -0.016 ± 0.0085 | -0.0485 ± 0.1 | -0.021 ± 0.03 | -0.08 ± 0.042 | -0.243 ± 0.0057 | -0.043 ± 0.03 | -0.089 ± 0.0057 | -0.21 ± 0.083 | -0.0005 ± 0.074 | -0.067 ± 0.096 | -0.004 ± 0.016 | -0.0265 ± 0.0064 |
| HDF3CGF:SRB | 0.0265 ± 0.033 | 0.0885 ± 0.022 | 0.0485 ± 0.079 | 0.016 ± 0.045 | -0.052 ± 0.071 | 0.01 ± 0.028 | -0.0025 ± 0.033 | 0.0285 ± 0.019 | -0.0505 ± 0.04 | -0.053 ± 0.02 | -0.018 ± 0.025 | -0.0325 ± 0.079 | 0.008 ± 0.037 | -0.009 ± 0.027 | -0.0365 ± 0.035 | 0.081 ± 0.016 | 0.065 ± 0.033 | 0.0105 ± 0.11 | 0.022 ± 0.057 |
| KF3CT:TIMP-2 | -0.038 ± 0.0099 | -0.0255 ± 0.043 | -0.03 ± 0.024 | 0.0145 ± 0.03 | -0.0035 ± 0.0064 | -0.045 ± 0.0085 | -0.0245 ± 0.04 | -0.033 ± 0.011 | -0.041 ± 0.013 | 0 ± 0.021 | 0.0385 ± 0.0078 | 0.0585 ± 0.011 | -0.01 ± 0.0014 | -0.0085 ± 0.016 | 0.0225 ± 0.025 | -0.0205 ± 0.0021 | -0.0015 ± 0.0021 | 0.004 ± 0.02 | -0.016 ± 0.011 |
| lMphg:CCL2/MCP-1 | -0.024 ± 0.037 | -0.0225 ± 0.023 | -0.0435 ± 0.0092 | -0.014 ± 0.0071 | 0.0385 ± 0.032 | 0.012 ± 0.013 | 0.001 ± 0.025 | -0.0235 ± 0.035 | 0.0055 ± 0.025 | -0.0005 ± 0.0092 | -0.0315 ± 0.0078 | -0.0755 ± 0.011 | -0.0055 ± 0.0092 | 0.0015 ± 0.0064 | -0.0075 ± 0.04 | 0.008 ± 0.047 | 0.0025 ± 0.015 | -0.0225 ± 0.022 | 0.0065 ± 0.025 |
| MyoF:alpha-SM Actin | -0.0155 ± 0.039 | -0.0235 ± 0.018 | -0.05 ± 0.014 | -0.016 ± 0.02 | -0.0435 ± 0.0035 | -0.0095 ± 0.005 | -0.023 ± 0.017 | -0.045 ± 0.0085 | 0.037 ± 0.095 | 0.039 ± 0.071 | 0.002 ± 0.078 | -0.0365 ± 0.1 | -0.0015 ± 0.023 | 0.004 ± 0.035 | 0.0105 ± 0.005 | -0.009 ± 0.028 | -0.022 ± 0.013 | -0.0125 ± 0.032 | -0.0095 ± 0.0078 |
| CASM3C:CCL2/MCP-1 | -0.012 ± 0.0085 | -0.0175 ± 0.013 | 0.043 ± 0.069 | 0.003 ± 0.0099 | 0.02 ± 0.018 | -0.013 ± 0.03 | -0.013 ± 0.014 | -0.014 ± 0.0099 | 0.0135 ± 0.044 | -0.012 ± 0.014 | -0.0195 ± 0.021 | -0.001 ± 0.052 | -0.0025 ± 0.015 | -0.0065 ± 0.0064 | 0.019 ± 0.023 | -0.0085 ± 0.011 | -0.011 ± 0.0028 | -0.0065 ± 0.018 | 0.001 ± 0.0042 |
| lMphg:SRB-Mphg | 0.012 ± 0.016 | 0.014 ± 0.024 | -0.0125 ± 0.03 | 0.001 ± 0.03 | 0.001 ± 0.011 | -0.0145 ± 0.021 | -0.01 ± 0.0071 | -0.016 ± 0.0057 | -0.001 ± 0.031 | -0.0085 ± 0.0021 | -0.0155 ± 0.011 | -0.0235 ± 0.0021 | -0.0005 ± 0.021 | 0.007 ± 0.0071 | 0.0055 ± 0.0035 | 0.01 ± 0.0042 | 0.0055 ± 0.018 | -0.007 ± 0.013 | 0.0305 ± 0.019 |
| BE3C:MMP-1 | 0.067 ± 0.0014 | 0.172 ± 0.0035 | 0.355 ± 0.021 | 0.011 ± 0.0071 | 0.059 ± 0.031 | 0.0075 ± 0.0078 | 0.014 ± 0.0071 | 0.022 ± 0.018 | -0.0025 ± 0.013 | 0.001 ± 0.0057 | -0.0235 ± 0.019 | -0.0645 ± 0.0021 | 0.149 ± 0.067 | 0.155 ± 0.012 | -0.0685 ± 0.26 | 0.083 ± 0.024 | 0.277 ± 0.0064 | 0.0155 ± 0.018 | 0.0395 ± 0.053 |
| HDF3CGF:CXCL9/MIG | -0.0175 ± 0.0064 | -0.046 ± 0.092 | -0.126 | -0.035 ± 0.0071 | -0.0875 ± 0.049 | -0.014 ± 0.013 | 0.0115 ± 0.012 | 0.0415 ± 0.0078 | -0.002 ± 0.018 | -0.0215 ± 0.013 | -0.026 ± 0.02 | -0.0645 ± 0.005 | -0.011 ± 0.013 | -0.0085 ± 0.029 | -0.0595 ± 0.0064 | -0.047 ± 0.02 | -0.142 ± 0.04 | 0.0055 ± 0.00071 | 0.025 ± 0.014 |
| lMphg:M-CSF | -0.027 ± 0.045 | -0.0395 ± 0.0035 | -0.0475 ± 0.026 | -0.023 ± 0.037 | -0.015 ± 0.0014 | 0.0175 ± 0.011 | -0.0055 ± 0.042 | 0.0085 ± 0.059 | 0.004 ± 0.018 | -0.0045 ± 0.0021 | -0.032 ± 0.011 | -0.0885 ± 0.0064 | -0.003 ± 0.013 | -0.008 ± 0.0085 | 0.03 ± 0.0042 | -0.0055 ± 0.0021 | -0.0045 ± 0.0021 | -0.0235 ± 0.021 | -0.0205 ± 0.036 |
| MyoF:bFGF | 0.013 ± 0.02 | 0.003 ± 0.0057 | 0.02 ± 0.011 | 0.01 ± 0.0014 | 0.021 ± 0.017 | -0.005 ± 0.0014 | -0.0055 ± 0.015 | 0.007 ± 0.0014 | 0.001 ± 0.016 | 0.003 ± 0.0071 | -0.015 ± 0.016 | 0.01 ± 0.0071 | -0.004 | -0.0185 ± 0.028 | -0.0125 ± 0.018 | -0.003 ± 0.023 | 0.0085 ± 0.011 | -0.0025 ± 0.012 | 0.0045 ± 0.005 |
| HDF3CGF:CXCL8/IL-8 | -0.0065 ± 0.005 | -0.001 ± 0.0028 | 0.001 ± 0.016 | 0.002 ± 0.0014 | 0.0165 ± 0.019 | -0.0075 ± 0.0021 | -0.0055 ± 0.012 | -0.005 ± 0.0014 | 0.006 ± 0.014 | -0.0155 ± 0.021 | -0.009 ± 0.0028 | 0.0045 ± 0.029 | -0.017 ± 0.0057 | -0.014 ± 0.0042 | 0.0055 ± 0.015 | -0.0225 ± 0.011 | 0.0015 ± 0.005 | 0.0065 ± 0.0064 | 0.008 ± 0.0057 |
| KF3CT:CXCL8/IL-8 | -0.019 ± 0.011 | -0.0145 ± 0.00071 | -0.103 ± 0.014 | 0.013 ± 0.0071 | 0.0605 ± 0.0092 | -0.005 ± 0.0014 | -0.027 ± 0.018 | -0.062 ± 0.0057 | -0.0045 ± 0.015 | -0.0225 ± 0.025 | -0.0545 ± 0.019 | -0.0335 ± 0.016 | -0.005 ± 0.0085 | -0.0135 ± 0.035 | -0.012 ± 0.035 | 0.0015 ± 0.021 | -0.0025 ± 0.0035 | 0.009 ± 0.0085 | 0.021 ± 0.0057 |

— the supplement of paper PMC10331698
